PMC5441580, “GPR40 partial agonist MK-2305 lower fasting glucose in the Goto Kakizaki rat via suppression of endogenous glucose production” (PLoS ONE, 2017)
Several values for one entry are separate records, joined by “and”; a condition that tells them apart may be missing. Identical values can stand only once.

Tested on: GK rats
Assay: GK rat acute oral glucose tolerance test (OGTT) with insulin co-measurement
Assay type: in vivo
Design: Blood Glucose AUC / Insulin AUC: unit not given here
Conditions: for Blood Glucose / Insulin (plasma) / Insulin AUC / Blood Glucose AUC: individual GK rats; for Insulin AUC: OGTT t = 0 to 60 min; for Blood Glucose AUC: OGTT t = 0 to 120 min
Experimental: On the day of the study, male GK rats were bled via tail snip, and blood glucose was measured via glucometer (OneTouch Ultra, Lifescan Inc., Milpitas, CA). Fed glucose was measured at 8 A.M. (lights on 7 A.M.– 7 P.M.) and used to select and sort animals into treatment groups (n = 8/ GK group, plus n = 6/WKY control group). Animals were then placed into clean cages, and food was removed. […] Dosages from 0.3–10 mg MK-2305 / kg body weight were tested. Both the GK and WKY control groups received vehicle (0.5% methylcellulose). Blood glucose was measured again (time = 0) immediately prior to a dextrose challenge of 1 g/kg at 10 ml/kg dose volume (Dextrose, Hospira Inc., Lake Forrest IL) and then again at 20, 40, 60, and 120 min after the glucose challenge. Insulin was co-measured to test the glucose-dependent secretory response to MK-2305 delivered acutely PO. […] […] Values of percent inhibition vs. vehicle for each treatment were generated from the AUC data. Maximally efficacious dose (MED) was defined as the minimum dosage generating a maximum inhibition of glucose excursion achieved with this compound in the OGTT assay.
Plasma was analyzed for triglycerides, NEFA, and HbA1C using a P Modular Roche Clinical Chemistry analyzer. Liver triglycerides were extracted as described by Bligh and Dyer, and were measured using the Infinity triglyceride assay kit (Thermo Scientific, Rockford, IL). Plasma insulin levels were measured via EIA (Mesoscale Discovery ELISA Kit, Gaithersburg MD).

[1] = 1 mpk PO, 60 min after glucose challenge
[2] = 3 mpk PO, 60 min after glucose challenge
[3] = 10 mpk PO, 60 min after glucose challenge

O=C1NC(=O)C(C2CCOc3cc(Oc4ccc(C(F)(F)F)cc4Cl)ccc32)S1 (centres unmarked) [MK-2305]
Blood Glucose [1]: 162 mg/dL and 197 mg/dL and 120 mg/dL and 151 mg/dL and 200 mg/dL and 153 mg/dL and 188 mg/dL and 185 mg/dL | Insulin (plasma) [1]: 1.868 ng/mL and 1.957 ng/mL and 1.358 ng/mL and 2.073 ng/mL and 2.523 ng/mL and 1.285 ng/mL and 2.265 ng/mL and 1.751 ng/mL | Blood Glucose (1 mpk PO, 120 min after glucose challenge): 120 mg/dL and 147 mg/dL and 101 mg/dL and 113 mg/dL and 162 mg/dL and 119 mg/dL and 110 mg/dL and 132 mg/dL | Insulin AUC (1 mpk PO): 127.564 and 125.822 and 145.583 and 145.346 and 124.296 and 92.8339 and 131.803 and 160.953 | Blood Glucose AUC (1 mpk PO): 18600 and 21570 and 21405 and 19360 and 22440 and 17695 and 17840 and 23185 | Insulin (plasma) (1 mpk PO, time 0 min (before glucose challenge)): 1.711 ng/mL and 2.457 ng/mL and 1.219 ng/mL and 2.149 ng/mL and 2.161 ng/mL and 2.386 ng/mL and 1.648 ng/mL and 2.525 ng/mL | Insulin (plasma) (1 mpk PO, time -70 min (before dosing)): 0.867 ng/mL and 1.049 ng/mL and 0.952 ng/mL and 1.247 ng/mL and 1.294 ng/mL and 0.937 ng/mL and 1.068 ng/mL and 1.695 ng/mL | Blood Glucose (3 mpk PO, 40 min after glucose challenge): 134 mg/dl and 184 mg/dl and 174 mg/dl (2×) and 183 mg/dl and 148 mg/dl and 181 mg/dl and 197 mg/dl | Blood Glucose [2]: 117 mg/dl and 116 mg/dl (2×) and 128 mg/dl and 136 mg/dl and 121 mg/dl and 86 mg/dl and 167 mg/dl | Insulin (plasma) [2]: 1.611 ng/mL and 1.625 ng/mL and 1.542 ng/mL and 2.593 ng/mL and 2.136 ng/mL and 0.682 ng/mL and 1.668 ng/mL and 1.737 ng/mL | Blood Glucose (3 mpk PO, 120 min after glucose challenge): 98 mg/dl and 130 mg/dl and 111 mg/dl and 112 mg/dl and 104 mg/dl (2×) and 78 mg/dl and 124 mg/dl | Insulin AUC (3 mpk PO): 154.858 and 139.888 and 150.655 and 143.381 and 149.287 and 136.931 and 166.524 and 165.471 | Blood Glucose AUC (3 mpk PO): 13845 and 15230 and 19575 and 14655 and 17655 and 16235 and 16890 and 15775 | Insulin (plasma) (3 mpk PO, time 0 min (before glucose challenge)): 2.038 ng/mL and 2.813 ng/mL and 2.511 ng/mL and 1.822 ng/mL and 2.53 ng/mL and 1.993 ng/mL and 3.94 ng/mL and 2.292 ng/mL | Insulin (plasma) (3 mpk PO, time -70 min (before dosing)): 1.014 ng/mL and 1.059 ng/mL and 0.86 ng/mL and 1.354 ng/mL and 1.26 ng/mL and 1.009 ng/mL and 0.738 ng/mL and 0.715 ng/mL | Insulin (plasma) (10 mpk PO, 10 min after glucose challenge): 2.601 ng/mL and 2.364 ng/mL and 2.726 ng/mL and 5.09 ng/mL | Blood Glucose (10 mpk PO, 40 min after glucose challenge): 175 mg/dL and 159 mg/dL and 143 mg/dL and 141 mg/dL and 190 mg/dL and 140 mg/dL and 169 mg/dL and 138 mg/dL | Blood Glucose [3]: 112 mg/dL and 121 mg/dL and 110 mg/dL and 96 mg/dL and 134 mg/dL and 125 mg/dL and 136 mg/dL and 122 mg/dL | Insulin (plasma) [3]: 3.212 ng/mL and 2.293 ng/mL and 2.244 ng/mL and 2.355 ng/mL and 1.203 ng/mL and 2.734 ng/mL and 1.35 ng/mL and 1.965 ng/mL | Blood Glucose (10 mpk PO, 120 min after glucose challenge): 95 mg/dL and 96 mg/dL and 92 mg/dL and 103 mg/dL and 108 mg/dL and 106 mg/dL and 90 mg/dL and 86 mg/dL | Insulin AUC (10 mpk PO): 214.776 and 171.523 and 203.357 and 192.34 and 162.197 and 187.807 and 233.894 and 115.015 | Blood Glucose AUC (10 mpk PO): 15625 and 16245 and 14660 and 15615 and 15760 and 13890 and 14070 and 17780 | Insulin (plasma) (10 mpk PO, time 0 min (before glucose challenge)): 4.429 ng/mL and 3.472 ng/mL and 2.279 ng/mL and 3.372 ng/mL and 2.041 ng/mL and 3.234 ng/mL and 3.429 ng/mL and 2.217 ng/mL | Insulin (plasma) (10 mpk PO, time -70 min (before dosing)): 1.186 ng/mL and 1.004 ng/mL and 1.491 ng/mL and 1.304 ng/mL and 0.764 ng/mL and 1.19 ng/mL and 0.996 ng/mL and 0.784 ng/mL | Blood Glucose (10 mpk PO, time AM (fed, before dosing)): 188 mg/dL and 169 mg/dL and 124 mg/dL and 160 mg/dL | MED (maximally efficacious dose) in OGTT (GK rats, PO): 3 mg/kg
